The source made the active and inactive calls. The calls are words filed in the database; no cut-off is given here.
Tests used:
[1] = target: 5-hydroxytryptamine receptor 1D (Homo sapiens) (UniProt P28221); conditions: Compound concentration 10.0 uM
[2] = target: 5-hydroxytryptamine receptor 6 (Homo sapiens) (UniProt P50406); conditions: Compound concentration 10.0 uM
[3] = target: 5-hydroxytryptamine receptor 1E (Homo sapiens) (UniProt P28566); conditions: Compound concentration 10.0 uM
[4] = target: Adenosine receptor A3 (Homo sapiens) (UniProt P0DMS8); conditions: Compound concentration 10.0 uM
[5] = target: T1, Sodium-dependent dopamine transporter (Homo sapiens, UniProt Q01959); experiment: GPCRScan assay: inhibition of DAT; parameters: radioligand conc. used [nm] 3.6 – 16.0, parental cells stable HEK
T1 sequence (Q01959 whole entry): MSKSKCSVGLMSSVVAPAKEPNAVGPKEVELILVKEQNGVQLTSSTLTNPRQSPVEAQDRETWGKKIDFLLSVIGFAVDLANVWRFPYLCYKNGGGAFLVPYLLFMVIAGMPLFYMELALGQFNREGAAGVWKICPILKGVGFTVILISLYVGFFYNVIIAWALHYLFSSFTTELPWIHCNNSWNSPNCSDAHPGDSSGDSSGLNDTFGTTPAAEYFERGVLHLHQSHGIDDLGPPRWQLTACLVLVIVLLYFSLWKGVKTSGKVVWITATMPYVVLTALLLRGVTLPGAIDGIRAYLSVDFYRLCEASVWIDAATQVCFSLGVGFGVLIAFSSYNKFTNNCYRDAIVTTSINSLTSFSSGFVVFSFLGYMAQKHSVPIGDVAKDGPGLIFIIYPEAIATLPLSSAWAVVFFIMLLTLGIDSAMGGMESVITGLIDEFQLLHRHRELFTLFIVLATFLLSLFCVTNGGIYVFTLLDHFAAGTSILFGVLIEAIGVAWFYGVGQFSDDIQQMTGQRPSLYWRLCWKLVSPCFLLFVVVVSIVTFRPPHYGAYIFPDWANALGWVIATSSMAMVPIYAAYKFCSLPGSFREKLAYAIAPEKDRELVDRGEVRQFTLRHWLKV

[6] = target: T2, 5-hydroxytryptamine receptor 2C (Homo sapiens) (UniProt P28335); conditions: Compound concentration 10.0 uM
T2 sequence (whole entry): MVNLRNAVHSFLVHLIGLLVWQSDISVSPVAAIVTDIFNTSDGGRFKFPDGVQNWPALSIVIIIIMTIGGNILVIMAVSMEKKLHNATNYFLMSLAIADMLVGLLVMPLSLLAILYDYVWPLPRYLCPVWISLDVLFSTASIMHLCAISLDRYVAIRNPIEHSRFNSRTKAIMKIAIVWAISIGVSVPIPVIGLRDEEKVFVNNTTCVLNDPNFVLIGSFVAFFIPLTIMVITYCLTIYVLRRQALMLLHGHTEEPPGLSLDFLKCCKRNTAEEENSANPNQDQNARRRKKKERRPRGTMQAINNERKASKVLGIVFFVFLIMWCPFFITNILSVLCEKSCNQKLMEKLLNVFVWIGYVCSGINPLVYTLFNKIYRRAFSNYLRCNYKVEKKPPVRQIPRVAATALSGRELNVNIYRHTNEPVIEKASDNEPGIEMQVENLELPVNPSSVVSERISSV

[7] = target: Histamine H4 receptor (Homo sapiens) (UniProt Q9H3N8); conditions: Compound concentration 10.0 uM
Sequence of Histamine H4 receptor (Homo sapiens) (Q9H3N8 whole entry): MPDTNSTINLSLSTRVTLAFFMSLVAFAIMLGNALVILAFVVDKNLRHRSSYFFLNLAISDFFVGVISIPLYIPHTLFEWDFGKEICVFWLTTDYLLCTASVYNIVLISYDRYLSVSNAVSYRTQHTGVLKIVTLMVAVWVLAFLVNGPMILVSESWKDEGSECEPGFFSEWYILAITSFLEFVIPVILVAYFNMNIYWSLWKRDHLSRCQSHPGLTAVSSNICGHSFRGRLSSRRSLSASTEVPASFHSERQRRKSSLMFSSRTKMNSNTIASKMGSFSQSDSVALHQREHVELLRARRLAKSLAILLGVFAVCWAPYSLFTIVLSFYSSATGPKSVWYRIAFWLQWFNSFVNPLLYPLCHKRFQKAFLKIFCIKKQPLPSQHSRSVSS

[8] = target: Glutamate receptor ionotropic, kainate (Rattus norvegicus) (UniProt P22756+Q01812+P42260+P42264+Q63273); experiment: Inhibition of Glutamate, Kainate at 10 µM in the Eurofins-Panlabs radioligand binding assay (Eurofins_assay_232700); conditions: Compound concentration 10.0 uM
Oryctolagus cuniculus = organism: Oryctolagus cuniculus; experiment: Inhibition of Purinergic P2X at 10 µM in the Eurofins-Panlabs radioligand binding assay (Eurofins_assay_268700); type: protein assay; conditions: Compound concentration 10.0 uM
[9] = target: D(1A) dopamine receptor (Homo sapiens) (UniProt P21728); conditions: Compound concentration 10.0 uM
[10] = target: Gamma-aminobutyric acid type B receptor subunit 1 (Homo sapiens) (UniProt Q9UBS5); conditions: Rattus norvegicus; Compound concentration 10.0 uM
[11] = target: D(3) dopamine receptor (Homo sapiens) (UniProt P35462); conditions: Compound concentration 10.0 uM
[12] = target: T3, Alpha-2C adrenergic receptor (Homo sapiens) (UniProt P18825); conditions: Compound concentration 10.0 uM
T3 sequence (whole entry): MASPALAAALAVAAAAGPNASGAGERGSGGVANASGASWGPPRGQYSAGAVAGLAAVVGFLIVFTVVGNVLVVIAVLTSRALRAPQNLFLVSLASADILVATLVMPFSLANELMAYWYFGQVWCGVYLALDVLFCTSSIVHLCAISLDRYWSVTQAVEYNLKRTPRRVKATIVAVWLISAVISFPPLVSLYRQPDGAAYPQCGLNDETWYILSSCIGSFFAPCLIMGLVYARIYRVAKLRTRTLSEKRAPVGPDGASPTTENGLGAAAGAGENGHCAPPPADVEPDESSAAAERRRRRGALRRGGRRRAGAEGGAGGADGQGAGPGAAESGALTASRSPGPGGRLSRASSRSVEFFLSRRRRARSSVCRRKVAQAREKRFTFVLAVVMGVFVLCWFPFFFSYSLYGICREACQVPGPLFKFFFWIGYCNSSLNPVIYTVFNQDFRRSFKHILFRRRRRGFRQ

[13] = target: Transient receptor potential cation channel subfamily A member 1 (Mus musculus, UniProt Q8BLA8); experiment: FLIPR Ca2+ assay (mouse TRPA1)
Histamine H2 receptor = Histamine H2 receptor (Homo sapiens, UniProt P25021); conditions: Compound concentration 10.0 uM
Sequence of Histamine H2 receptor (P25021 whole entry): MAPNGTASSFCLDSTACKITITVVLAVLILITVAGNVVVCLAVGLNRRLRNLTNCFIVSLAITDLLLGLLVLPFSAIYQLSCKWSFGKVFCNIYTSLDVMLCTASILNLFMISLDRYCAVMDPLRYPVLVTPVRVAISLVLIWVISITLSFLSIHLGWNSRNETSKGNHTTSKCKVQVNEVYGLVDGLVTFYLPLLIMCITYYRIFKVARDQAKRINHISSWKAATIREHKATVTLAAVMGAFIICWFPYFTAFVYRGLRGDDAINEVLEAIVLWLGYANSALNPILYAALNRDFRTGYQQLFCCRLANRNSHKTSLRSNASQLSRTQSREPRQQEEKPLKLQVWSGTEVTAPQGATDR

[14] = target: Kappa-type opioid receptor (Homo sapiens) (UniProt P41145); conditions: Compound concentration 10.0 uM
[15] = target: 5-hydroxytryptamine receptor 2A (Homo sapiens, UniProt P28223); experiment: GPCRScan assay: inhibition of 5-HT2A; parameters: radioligand conc. used [nm] 1.2 – 2.4, parental cells HEKT
Sequence of 5-hydroxytryptamine receptor 2A (P28223 whole entry): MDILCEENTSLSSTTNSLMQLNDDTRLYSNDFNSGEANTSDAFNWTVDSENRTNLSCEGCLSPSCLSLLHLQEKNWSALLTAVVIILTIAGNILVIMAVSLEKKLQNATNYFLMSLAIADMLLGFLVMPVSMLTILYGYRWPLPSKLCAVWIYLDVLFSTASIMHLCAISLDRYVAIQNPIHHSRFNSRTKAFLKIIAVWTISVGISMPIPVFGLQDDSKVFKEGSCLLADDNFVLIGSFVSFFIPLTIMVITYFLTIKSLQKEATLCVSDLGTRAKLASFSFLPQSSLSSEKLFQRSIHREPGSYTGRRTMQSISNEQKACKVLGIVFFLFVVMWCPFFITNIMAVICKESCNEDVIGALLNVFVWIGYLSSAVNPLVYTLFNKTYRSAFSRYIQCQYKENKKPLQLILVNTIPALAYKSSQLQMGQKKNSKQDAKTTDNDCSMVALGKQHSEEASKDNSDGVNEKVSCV

[16] = target: T1, Sodium-dependent dopamine transporter; conditions: Compound concentration 10.0 uM
[17] = target: Insulin receptor (Homo sapiens) (UniProt P06213); conditions: Rattus norvegicus; Compound concentration 10.0 uM
Sequence of Insulin receptor (Homo sapiens) (P06213 28-758 limits assumed): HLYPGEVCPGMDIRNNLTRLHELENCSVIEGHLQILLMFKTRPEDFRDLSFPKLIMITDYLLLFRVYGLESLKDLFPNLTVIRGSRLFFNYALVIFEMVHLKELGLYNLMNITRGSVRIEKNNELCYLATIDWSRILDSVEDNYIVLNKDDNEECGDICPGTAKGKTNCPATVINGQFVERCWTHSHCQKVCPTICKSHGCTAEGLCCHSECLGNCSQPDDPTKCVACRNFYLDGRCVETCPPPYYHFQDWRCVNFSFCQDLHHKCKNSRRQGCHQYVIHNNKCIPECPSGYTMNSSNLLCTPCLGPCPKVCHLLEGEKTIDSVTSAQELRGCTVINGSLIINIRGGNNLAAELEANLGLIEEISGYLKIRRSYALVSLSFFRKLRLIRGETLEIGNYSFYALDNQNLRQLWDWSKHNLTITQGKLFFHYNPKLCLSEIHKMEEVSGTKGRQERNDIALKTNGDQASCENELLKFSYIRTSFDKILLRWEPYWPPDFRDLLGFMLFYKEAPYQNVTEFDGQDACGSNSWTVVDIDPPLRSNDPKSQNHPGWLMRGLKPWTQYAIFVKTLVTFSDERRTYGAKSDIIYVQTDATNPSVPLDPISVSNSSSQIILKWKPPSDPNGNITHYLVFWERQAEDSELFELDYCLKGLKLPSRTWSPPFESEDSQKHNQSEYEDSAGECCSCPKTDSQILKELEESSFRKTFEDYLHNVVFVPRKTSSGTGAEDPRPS
Sequence of Insulin receptor (Homo sapiens) (P06213 763-1382 limits assumed): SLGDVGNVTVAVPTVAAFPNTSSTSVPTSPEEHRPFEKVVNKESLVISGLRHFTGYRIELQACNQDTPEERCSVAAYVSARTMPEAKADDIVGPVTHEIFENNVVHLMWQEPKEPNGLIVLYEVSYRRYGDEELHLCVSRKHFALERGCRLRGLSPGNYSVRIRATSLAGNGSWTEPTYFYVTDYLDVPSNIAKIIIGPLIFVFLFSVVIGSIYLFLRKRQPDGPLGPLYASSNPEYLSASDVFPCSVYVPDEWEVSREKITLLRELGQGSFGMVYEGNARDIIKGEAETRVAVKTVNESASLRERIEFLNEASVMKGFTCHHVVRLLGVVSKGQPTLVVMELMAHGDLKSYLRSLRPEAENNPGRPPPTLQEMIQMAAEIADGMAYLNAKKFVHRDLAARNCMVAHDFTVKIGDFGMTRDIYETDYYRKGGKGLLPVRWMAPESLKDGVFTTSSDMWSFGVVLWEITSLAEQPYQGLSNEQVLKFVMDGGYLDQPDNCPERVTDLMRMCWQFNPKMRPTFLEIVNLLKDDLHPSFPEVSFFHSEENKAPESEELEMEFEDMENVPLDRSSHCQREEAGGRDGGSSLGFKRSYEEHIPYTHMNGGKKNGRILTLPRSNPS

[18] = target: 5-hydroxytryptamine receptor 2B (Homo sapiens) (UniProt P41595); conditions: Compound concentration 10.0 uM
Sequence of 5-hydroxytryptamine receptor 2B (Homo sapiens) (P41595 whole entry): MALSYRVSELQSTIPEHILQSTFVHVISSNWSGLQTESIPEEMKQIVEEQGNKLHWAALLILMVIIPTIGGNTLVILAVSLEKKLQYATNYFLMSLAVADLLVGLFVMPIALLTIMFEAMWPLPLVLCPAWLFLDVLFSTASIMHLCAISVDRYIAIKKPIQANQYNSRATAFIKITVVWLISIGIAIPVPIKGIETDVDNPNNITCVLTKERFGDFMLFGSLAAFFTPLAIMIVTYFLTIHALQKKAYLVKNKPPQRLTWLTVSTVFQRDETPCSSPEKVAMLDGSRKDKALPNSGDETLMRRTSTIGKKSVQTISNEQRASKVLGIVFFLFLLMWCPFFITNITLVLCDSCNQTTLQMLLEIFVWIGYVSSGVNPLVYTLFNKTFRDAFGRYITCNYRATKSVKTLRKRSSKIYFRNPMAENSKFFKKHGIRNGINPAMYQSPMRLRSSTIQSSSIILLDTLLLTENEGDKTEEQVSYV

[19] = target: Cannabinoid receptor 2 (Homo sapiens) (UniProt P34972); conditions: Compound concentration 10.0 uM
[20] = target: Sigma non-opioid intracellular receptor 1 (Homo sapiens) (UniProt Q99720); conditions: Compound concentration 10.0 uM
[21] = target: Sodium-dependent noradrenaline transporter (Homo sapiens) (UniProt P23975); conditions: Compound concentration 10.0 uM
[22] = target: T4, Muscarinic acetylcholine receptor M4 (Homo sapiens) (UniProt P08173); conditions: Compound concentration 10.0 uM
T4 sequence (whole entry): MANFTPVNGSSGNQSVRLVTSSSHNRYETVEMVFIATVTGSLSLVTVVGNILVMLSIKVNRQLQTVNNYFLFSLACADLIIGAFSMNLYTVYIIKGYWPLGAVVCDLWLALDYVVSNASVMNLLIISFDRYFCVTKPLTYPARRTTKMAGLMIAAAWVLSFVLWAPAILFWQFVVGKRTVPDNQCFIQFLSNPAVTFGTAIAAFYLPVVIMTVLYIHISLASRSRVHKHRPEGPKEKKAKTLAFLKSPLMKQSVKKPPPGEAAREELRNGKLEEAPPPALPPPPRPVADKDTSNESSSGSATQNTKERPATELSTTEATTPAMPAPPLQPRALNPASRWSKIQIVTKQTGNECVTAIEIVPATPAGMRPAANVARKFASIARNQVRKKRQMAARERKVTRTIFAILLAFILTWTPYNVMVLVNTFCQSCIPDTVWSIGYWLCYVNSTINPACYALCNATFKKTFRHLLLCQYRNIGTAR

[23] = target: Adenosine receptor A2a (Homo sapiens) (UniProt P29274); conditions: Compound concentration 10.0 uM
Sequence of Adenosine receptor A2a (Homo sapiens) (P29274 whole entry): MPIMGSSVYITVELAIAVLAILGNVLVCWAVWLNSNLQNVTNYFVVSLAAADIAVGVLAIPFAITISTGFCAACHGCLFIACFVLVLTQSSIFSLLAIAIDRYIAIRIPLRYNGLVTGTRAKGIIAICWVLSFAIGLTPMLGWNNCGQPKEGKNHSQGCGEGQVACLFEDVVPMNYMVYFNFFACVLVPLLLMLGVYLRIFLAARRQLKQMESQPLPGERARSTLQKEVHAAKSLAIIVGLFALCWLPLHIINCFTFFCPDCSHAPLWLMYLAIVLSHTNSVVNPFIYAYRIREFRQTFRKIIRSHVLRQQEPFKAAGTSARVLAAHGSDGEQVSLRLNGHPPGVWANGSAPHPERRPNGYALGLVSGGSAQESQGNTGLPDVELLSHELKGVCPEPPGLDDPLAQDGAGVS

[24] = target: Mu-type opioid receptor (Homo sapiens) (UniProt P35372); conditions: Compound concentration 10.0 uM

Sequence of 5-hydroxytryptamine receptor 1E (Homo sapiens) (P28566 whole entry): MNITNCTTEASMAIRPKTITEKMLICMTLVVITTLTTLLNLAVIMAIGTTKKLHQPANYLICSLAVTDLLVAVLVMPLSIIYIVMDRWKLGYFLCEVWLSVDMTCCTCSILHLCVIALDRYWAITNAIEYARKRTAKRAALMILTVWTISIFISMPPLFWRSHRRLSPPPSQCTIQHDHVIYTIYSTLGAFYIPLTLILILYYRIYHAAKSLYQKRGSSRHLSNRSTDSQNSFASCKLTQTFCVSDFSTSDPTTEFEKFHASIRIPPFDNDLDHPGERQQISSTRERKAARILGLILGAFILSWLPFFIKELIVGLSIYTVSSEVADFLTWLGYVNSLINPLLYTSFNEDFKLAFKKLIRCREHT
Sequence of 5-hydroxytryptamine receptor 6 (Homo sapiens) (P50406 whole entry): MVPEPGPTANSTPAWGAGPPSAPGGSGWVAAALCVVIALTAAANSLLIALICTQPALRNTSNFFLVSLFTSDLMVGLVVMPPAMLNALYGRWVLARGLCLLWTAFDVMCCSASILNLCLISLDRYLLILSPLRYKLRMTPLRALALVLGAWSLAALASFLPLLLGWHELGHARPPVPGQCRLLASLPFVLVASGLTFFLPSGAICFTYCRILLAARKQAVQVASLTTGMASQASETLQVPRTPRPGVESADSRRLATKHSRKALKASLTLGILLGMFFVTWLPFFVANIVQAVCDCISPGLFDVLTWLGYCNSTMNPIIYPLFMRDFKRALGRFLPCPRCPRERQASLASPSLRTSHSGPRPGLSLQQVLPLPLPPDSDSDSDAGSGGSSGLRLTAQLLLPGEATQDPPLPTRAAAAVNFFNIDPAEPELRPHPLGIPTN

Question: Which inhibition [1] does the source give for `COc1cc(N[C@@H]2CCCC[C@]2(O)C(F)(F)F)ccc1F` [BAY-9897] here?
Answer: 2.77%

Question: What about the inhibition [2] of the same compound?
Answer: -4.02%

Question: What about the inhibition [3] of the same compound?
Answer: -4.13%

Question: What does the source list for `O[C@]1(C(F)(F)F)CCCC[C@H]1Nc1ccc(F)cc1` [BAY-390]?
Answer: inhibition [4]: 4%; Ki ([5]; read-out: Ki): 1380 nM; Ki ([5]; read-out: pKi (converted)): 1350 nM; inhibition [6]: 3%; inhibition [7]: 15.6%; inhibition [8]: -3%; inhibition (Oryctolagus cuniculus): 3%; inhibition [9]: 15.6%; inhibition [10]: 3%; inhibition [11]: 9%; inhibition [12]: -1%; IC50 [13]: 73 nM (active); inhibition (Histamine H2 receptor): -8%; inhibition [14]: 7%; Ki [15]: 2580 nM; inhibition [16]: 56.5%; inhibition [17]: 8%; inhibition [18]: -4%; inhibition [19]: 21%; inhibition [20]: 36.2%; inhibition [21]: 16%; inhibition [22]: 14%; inhibition [23]: 3%; inhibition [24]: 5%

From ChEMBL document CHEMBL4507328, “Data for DCP probe BAY-390” (2021)
